22 compounds from patent publication US20060142247A1, “Tricyclic heterocycles” (priority 2004, published 2006) can be followed below.

pIC50: −log10 of the molar value.

For the assay, the system named is HCT 116 cells. The assay is described as follows: Viability assay HCT 116 cells (CellTiter-Glo). The settings on record: Homo sapiens, HCT-116, 120 h, HCT 116 human colon carcinoma cells, 5 days incubation, CellTiter-Glo luminescence. It is filed as cell-based. The procedure:
Viability Assay—HCT 116 Cells
A viability assay was performed using the CellTiter-Glo® Luminescent Cell Viability Assay (see Promega Corporation's Technical Bulletin No. 288, pp. 1-11 [revised 2/04] which is hereby incorporated by reference in its entirety). This assay is a homogeneous method of determining the number of viable cells in culture based on quantitation of the ATP present, an indicator of metabolically active cells. The assay is designed for use with multiwell formats, making it ideal for automated high-throughput screening (HTS), cell proliferation and cytotoxicity assays. The homogeneous assay procedure involves adding a single reagent (containing luciferase, luciferan substrate, and buffer) directly to cells cultured in serum-supplemented medium. Cell washing, removal of medium and multiple pipetting steps are not required. The system detects as few as 15 cells/well in a 384-well format in 10 minutes after adding reagent and mixing.
The homogeneous “add-mix-measure” format results in cell lysis and generation of a luminescent signal proportional to the amount of ATP present. The amount of ATP is directly proportional to the number of cells present in culture. The above-referenced assay generates a “glow-type” luminescent signal, produced by the luciferase reaction, which has a half-life generally greater than five hours, depending on cell type and medium used. The extended half-life eliminates the need to use reagent injectors and provides flexibility for continuous or batch mode processing of multiple plates. The unique homogeneous format avoids errors that may be introduced by other ATP measurement methods that require multiple steps.
HCT 116 cells (human colon carcinoma, ATCC-No. CCl-247) were cultivated in RPMI 1640 medium with GlutaMAX™ I (cell culture media that contains L-Alanyl-L-Glutamine [a stabilized a form/source of L-Glutamine] from Invitrogen, Cat-No. 61870-010), 2.5% Fetal Calf Serum (FCS, Sigma Cat-No. F4135 (FBS)); 100 Units/ml penicillin/100 μg/ml streptomycin (=Pen/Strep from Invitrogen Cat. No. 15140). For the assay the cells were seeded in 384 well plates, 1000 cells per well, in the same medium. The next day the test compounds were added in various concentrations ranging from 30 μM to 0.0015 μM (10 concentrations, 1:3 diluted). After 5 days the viability assay was done according to the instructions of the manufacturer. In brief: the cell-plate was equilibrated to room temperature for approximately 30 minutes and than the reagent (containing luciferase, luciferan substrate, and buffer) was added. The contents were carefully mixed for 15 minutes to induce cell lysis. After 45 minutes the luminescent signal was measured in Victor 2, (scanning multiwell spectrophotometer, Wallac).
Medium: RPMI 1640 with cell culture media containing L-Alanyl-L-Glutamine [GlutaMAX™ I (Invitrogen, Cat-Nr. 61870)], 5% FCS (Sigma Cat.-No. F4135), Pen/Strep (Invitrogen, Cat No. 15140). • HCT116 (ATCC-No. CCl-247): 1000 cells in 60 μl per well of 384 well plate (Greiner 781098, μClear-plate white) • After seeding incubate plates 24 h at 37° C., 5% CO2 2nd. Day: Induction (Treatment with Compounds, 10 Concentrations):
In order to achieve a final concentration of 30 μM as highest concentration […] of 10 mM compound stock solution were added directly to 163 μl media. Then step e) of the dilution procedure described below, was followed.
A general note: In ATP-based viability assays light output follows the ATP content of the culture.

Turning to `CCN1C(=O)C(C)(C)c2cc3nc(-c4n[nH]c5ccc(C(N)=O)cc45)[nH]c3cc21` [Example 100, 3-(5-Ethyl-7,7-dimethyl-6-oxo-3,5,6,7-tetrahydro-imidazo[4,5-f]indol-2-yl)-1H-indazole-5-carboxylic acid amide], the negative logarithm of the IC50 (pIC50) was 5.00 to 6.00. On to `CN1C(=O)C(C)(C)c2cc3nc(-c4n[nH]c5ccccc45)[nH]c3cc21` [Example 4, 2-(1H-indazol-3-yl)-5,7,7-trimethyl-5,7-dihydro-3H-imidazo[4,5-f]indol-6-one], for which the pIC50 was 6.00 to 7.00.

Take `CC1(C)C(=O)N(CCNC(=O)C2CC2)c2cc3[nH]c(-c4n[nH]c5ccccc45)nc3cc21` [Example 56, Cyclopropanecarboxylic acid {2-[2-(1H-indazol-3-yl)-7,7-dimethyl-6-oxo-6,7-dihydro-3H-imidazo[4,5-f]indol-5-yl]-ethyl}-amide]: the pIC50 is 6.00 to 7.00.

In turn, `CCN1C(=O)C(C)(C)c2cc3nc(-c4n[nH]c5ccc(C(=O)NCc6cccc(OC(F)(F)F)c6)cc45)[nH]c3cc21` [Example 86, 3-(5-Ethyl-7,7-dimethyl-6-oxo-3,5,6,7-tetrahydro-imidazo[4,5-f]indol-2-yl)-1H-indazole-5-carboxylic acid 3-trifluoromethoxy-benzylamide] gave a negative-log IC50 (pIC50) of 6.00 to 7.00. To `CONC(=O)CN1C(=O)C(C)(C)c2cc3nc(-c4n[nH]c5ccccc45)[nH]c3cc21` [Example 51, 2-[2-(1H-Indazol-3-yl)-7,7-dimethyl-6-oxo-6,7-dihydro-3H-imidazo[4,5-f]indol-5-yl]-N-methoxy-acetamide] belongs 6.00 to 7.00; to `CCN1C(=O)C(C)(C)c2cc3nc(-c4n[nH]c5ccc(NC(C)=O)cc45)[nH]c3cc21` [Example 145, N-[3-(5-Ethyl-7,7-dimethyl-6-oxo-3,5,6,7-tetrahydro-imidazo[4,5-f]indol-2-yl)-1H-indazol-5-yl]-acetamide], 5.00 to 6.00. As to `CCN1C(=O)C(C)(C)c2cc3[nH]c(-c4n[nH]c5ccc(NC(=O)Cc6ccc(C)cc6)cc45)nc3cc21` [Example 117, N-[3-(5-Ethyl-7,7-dimethyl-6-oxo-1,5,6,7-tetrahydro-imidazo[4,5-f]indol-2-yl)-1H-indazol-5-yl]-2-p-tolyl-acetamide], the pIC50 is 6.00 to 7.00. The compound `CC1(C)C(=O)N(CCS(C)(=O)=O)c2cc3[nH]c(-c4n[nH]c5ccccc45)nc3cc21` [Example 65, 2-(1H-Indazol-3-yl)-5-(2-methanesulfonyl-ethyl)-7,7-dimethyl-5,7-dihydro-3H-imidazo[4,5-f]indol-6-one] showed a pIC50 of 6.00 to 7.00. `CC1(C)C(=O)N(CCNC(=O)N2CCCC2)c2cc3[nH]c(-c4n[nH]c5ccccc45)nc3cc21` [Example 58, Pyrrolidine-1-carboxylic acid {2-[2-(1H-indazol-3-yl)-7,7-dimethyl-6-oxo-6,7-dihydro-3H-imidazo[4,5-f]indol-5-yl]-ethyl}-amide] gave a pIC50 of 6.00 to 7.00.

`CCC(=O)Nc1ccc2[nH]nc(-c3nc4cc5c(cc4[nH]3)C(C)(C)C(=O)N5CC)c2c1` [Example 122, N-[3-(5-Ethyl-7,7-dimethyl-6-oxo-1,5,6,7-tetrahydro-imidazo[4,5-f]indol-2-yl)-1H-indazol-5-yl]-propionamide] showed a pIC50 of 6.00 to 7.00. Take `CC1(C)C(=O)Nc2cc3[nH]c(-c4n[nH]c5cc(C(=O)NCc6ccccc6)ccc45)nc3cc21` [Example 104, 3-(7,7-Dimethyl-6-oxo-3,5,6,7-tetrahydro-imidazo[4,5-f]indol-2-yl)-1H-indazole-6-carboxylic acid benzylamide]: the pIC50 is 5.00 to 6.00. For `CCN1C(=O)C(C)(C)c2cc3nc(-c4n[nH]c5ccc(F)cc45)[nH]c3cc21` [Example 66, 5-Ethyl-2-(5-fluoro-1H-indazol-3-yl)-7,7-dimethyl-5,7-dihydro-3H-imidazo[4,5-f]indol-6-one], the pIC50 was 6.00 to 7.00. `CC1(C)C(=O)N(CCNC(=O)c2cccnc2)c2cc3[nH]c(-c4n[nH]c5ccccc45)nc3cc21` [Example 55, N-{2-[2-(1H-Indazol-3-yl)-7,7-dimethyl-6-oxo-6,7-dihydro-3H-imidazo[4,5-f]indol-5-yl]-ethyl}-nicotinamide] had a negative logarithm of the IC50 (pIC50) of 6.00 to 7.00. Under `CCN1C(=O)C(C)(C)c2cc3nc(-c4n[nH]c5cc(Br)ccc45)[nH]c3cc21` [Example 70, 2-(6-Bromo-1H-indazol-3-yl)-5-ethyl-7,7-dimethyl-5,7-dihydro-3H-imidazo[4,5-f]indol-6-one] stands 6.00 to 7.00; under `CCN1C(=O)C(C)(C)c2cc3nc(-c4n[nH]c5ccc(C(=O)NCc6cccc(Cl)c6)cc45)[nH]c3cc21` [Example 88, 3-(5-Ethyl-7,7-dimethyl-6-oxo-3,5,6,7-tetrahydro-imidazo[4,5-f]indol-2-yl)-1H-indazole-5-carboxylic acid 3-chloro-benzylamide], 6.00 to 7.00.

Take `CCN1C(=O)C(C)(C)c2cc3[nH]c(-c4n[nH]c5ccc(NC(=O)N6CCOCC6)cc45)nc3cc21` [Example 128, Morpholine-4-carboxylic acid [3-(5-ethyl-7,7-dimethyl-6-oxo-1,5,6,7-tetrahydro-imidazo[4,5-f]indol-2-yl)-1H-indazol-5-yl]-amide]: the pIC50 is 5.00 to 6.00. Under `CCN1C(=O)C(C)(C)c2cc3[nH]c(-c4n[nH]c5ccc(NS(=O)(=O)c6ccccc6S(C)(=O)=O)cc45)nc3cc21` [Example 140, N-[3-(5-Ethyl-7,7-dimethyl-6-oxo-1,5,6,7-tetrahydro-imidazo[4,5-f]indol-2-yl)-1H-indazol-5-yl]-2-methanesulfonyl-benzenesulfonamide] stands 6.00 to 7.00; under `CSCCN1C(=O)C(C)(C)c2cc3nc(-c4n[nH]c5ccccc45)[nH]c3cc21` [Example 25, 2-(1H-Indazol-3-yl)-7,7-dimethyl-5-(2-methylsulfanyl-ethyl)-5,7-dihydro-3H-imidazo[4,5-f]indol-6-one], 6.00 to 7.00; under `CCN1C(=O)C(C)(C)c2cc3[nH]c(-c4n[nH]c5ccc(NS(=O)(=O)c6ccccc6)cc45)nc3cc21` [Example 132, N-[3-(5-Ethyl-7,7-dimethyl-6-oxo-1,5,6,7-tetrahydro-imidazo[4,5-f]indol-2-yl)-1H-indazol-5-yl]-benzenesulfonamide], 6.00 to 7.00.

Take `CC(C)N1C(=O)C(C)(C)c2cc3[nH]c(-c4n[nH]c5ccc(NS(=O)(=O)c6ccccc6[N+](=O)[O-])cc45)nc3cc21` [Example 144, N-[3-(5-Isopropyl-7,7-dimethyl-6-oxo-1,5,6,7-tetrahydro-imidazo[4,5-f]indol-2-yl)-1H-indazol-5-yl]-2-nitro-benzenesulfonamide]: the negative-log IC50 (pIC50) is 6.00 to 7.00. Under `CCN1C(=O)C(C)(C)c2cc3[nH]c(-c4n[nH]c5ccc(NC(=O)Cc6ccccc6C)cc45)nc3cc21` [Example 113, N-[3-(5-Ethyl-7,7-dimethyl-6-oxo-1,5,6,7-tetrahydro-imidazo[4,5-f]indol-2-yl)-1H-indazol-5-yl]-2-o-tolyl-acetamide] stands 6.00 to 7.00. To `CCN1C(=O)C(C)(C)c2cc3nc(-c4n[nH]c5ccc(C(=O)N6CCSCC6)cc45)[nH]c3cc21` [Example 95, 5-Ethyl-7,7-dimethyl-2-[5-(thiomorpholine-4-carbonyl)-1H-indazol-3-yl]-5,7-dihydro-3H-imidazo[4,5-f]indol-6-one] belongs 6.00 to 7.00.

As usually defined, the pIC50 is the negative decadic logarithm of the IC50, by convention in mol/L. A higher pIC50 goes with a low IC50.
